Numbers after ± are expanded uncertainties.

For this data set the following is noted: Liquid; pulse heating.
Consider `CCCCCCCCCC[O][Ti]([O]CCCCCCCCCC)([O]CCCCCCCCCC)[O]CCCCCCCCCC` [tetra(decyloxy)titanium], for which the Critical pressure was 610 ± 40 kPa and the Critical temperature was 882 ± 18 K.

For the compound `CC[O-].CC[O-].CC[O-].CC[O-].[Ti+4]` [tetraethoxytitanium], the Critical pressure is 1400 ± 80 kPa and the Critical temperature is recorded as 647 ± 12 K.

As for `CCCCCCC[O][Ti]([O]CCCCCCC)([O]CCCCCCC)[O]CCCCCCC` [tetraheptoxytitanium], the Critical pressure was 730 ± 40 kPa and the Critical temperature is listed as 808 ± 16 K.

In the case of `CCCCCC[O][Ti]([O]CCCCCC)([O]CCCCCC)[O]CCCCCC` [tetrakis(hexyloxy)titanium], the Critical pressure is given as 780 ± 40 kPa and the Critical temperature is listed as 780 ± 16 K.

For the compound `CCCCC[O][Ti]([O]CCCCC)([O]CCCCC)[O]CCCCC` [tetrakis(pentyloxy)titanium], the Critical pressure is 910 ± 60 kPa and the Critical temperature stood at 751 ± 16 K.

With `CCCCCCCCC[O][Ti]([O]CCCCCCCCC)([O]CCCCCCCCC)[O]CCCCCCCCC` [tetranonoxytitanium], the Critical pressure is listed as 630 ± 40 kPa and the Critical temperature is on record as 855 ± 18 K.

On to `CCCCCCCC[O][Ti]([O]CCCCCCCC)([O]CCCCCCCC)[O]CCCCCCCC` [tetraoctoxytitanium], for which the Critical pressure stood at 660 ± 40 kPa and the Critical temperature is given as 831 ± 16 K.

On to `CCC[O-].CCC[O-].CCC[O-].CCC[O-].[Ti+4]` [tetrapropoxytitanium], for which the Critical pressure is on record as 1150 ± 80 kPa and the Critical temperature is 685 ± 14 K.

Turning to `CCCC[O-].CCCC[O-].CCCC[O-].CCCC[O-].[Ti+4]` [titanium(IV) butan-1-olate], the Critical pressure is listed as 1020 ± 60 kPa and the Critical temperature turned out to be 719 ± 14 K.

(Values after the NIST ThermoML archive (doi:10.1021/je900302n).)
